Experiments:
[1] = tested on: Sexual Disorders and/or Dysfunctions; assay: studies of female patients suffering from Sexual Disorders; type: in vivo; conditions: free base or acceptable derivative, qualitative
5-HT2-receptor = conditions: background statement, qualitative; cited from earlier work
5-HT1A receptor = molecular target: T1, 5-HT1A receptor (Homo sapiens, UniProt P08908); conditions: background statement, qualitative; cited from earlier work
T1 sequence (P08908 1-422): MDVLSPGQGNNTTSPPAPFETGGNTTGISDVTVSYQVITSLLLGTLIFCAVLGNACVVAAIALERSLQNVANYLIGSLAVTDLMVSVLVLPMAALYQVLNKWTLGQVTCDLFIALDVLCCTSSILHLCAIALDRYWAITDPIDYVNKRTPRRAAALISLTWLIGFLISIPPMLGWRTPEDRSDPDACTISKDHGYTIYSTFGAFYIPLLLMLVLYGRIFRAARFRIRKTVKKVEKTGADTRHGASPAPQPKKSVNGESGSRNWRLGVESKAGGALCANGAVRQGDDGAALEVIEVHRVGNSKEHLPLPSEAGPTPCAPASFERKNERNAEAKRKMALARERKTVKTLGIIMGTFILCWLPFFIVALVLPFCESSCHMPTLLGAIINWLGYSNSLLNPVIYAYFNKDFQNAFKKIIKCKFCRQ

## O=c1[nH]c2ccccc2n1CCN1CCN(c2cccc(C(F)(F)F)c2)CC1 [Flibanserin, 1-[2-(4-(3-trifluoromethyl-phenyl)piperazin-1-yl)ethyl]-2,3-dihydro-1H-benzimidazol-2-one]
[1]
  effect on Sexual Disorders and/or Dysfunctions: positive effect
5-HT2-receptor
  affinity for the 5-HT2-receptor: shows affinity
5-HT1A receptor
  affinity for the 5-HT1A receptor: shows affinity

— US20090318469A1, “Use of Flibanserin for the Treatment of Sexual Disorders in Females” (Boehringer Ingelheim International GmbH, priority 2006, published 2009)
